Here are results for 1 compound from paper PMC11393688, “Design and synthesis of new 1,2,4-oxadiazole/quinazoline-4-one hybrids with antiproliferative activity as multitargeted inhibitors” (Frontiers in Chemistry, 2024).

Usually viability stands for a read-out of living cells in per cent, often relative to untreated cells. A low value points to a greater loss of cells. Broadly, the IC50 is the point on the concentration scale where inhibition reaches its midpoint.

A short description of data set [1]: Cell viability, MTT test on normal cell line. The class given is cell-based. The settings on record: human, MCF-10A mammary gland epithelial cells (normal cell line), MCF-10A normal cells, 4 days incubation. The protocol: The human mammary gland epithelial (MCF-10A) normal cell line was used to test the viability of novel compounds 9a-o ([Mahmoud et al., 2022]; [Mekheimer et al., 2022]). After 4 days of incubation on MCF-10A cells, the cell viability of compounds 9a-o was determined using the MTT test.
The human mammary gland epithelial (MCF-10A) normal cell line was used to test the viability of compounds 9a-o ([Mahmoud et al., 2022]; [Mekheimer et al., 2022]). Refer to Supplementary Appendix A (Supplementary Material) for more details.
4.2. Biological evaluation
4.2.1. Cytotoxic activity using MTT Assay and evaluation of IC50
MTT assay was carried out to study the effect of compounds on mammary epithelial cells (MCF-10A). The medium in which cells were propagated contained Dulbecco's modified Eagle's medium (DMEM)/ Ham's F-12 medium (1:1) supplemented with epidermal growth factor (20 ng/mL), hydrocortisone (500 ng/mL), insulin (10 μg/mL), 2 mM glutamine and 10% foetal calf serum.
After every 2-3 days, the cells were passaged using trypsin ethylenediamine tetra acetic acid (EDTA). The cells were seeded at a density of 10^4 cells mL-1 in flat-bottomed culture plates containing 96 wells each. After 24 h, medium was removed from the plates and the compounds in (in 0.1% DMSO) were added (in 200 μL medium to yield a final concentration of 0.1% v/v) to the wells of plates. A single compound was designated with four wells followed by incubation of plates for 96h at 37°C. After incubation, medium was removed completely from the plates followed by addition of MTT (0.4 mg/mL in medium) to each well and subsequent incubation of plates for 3h. MTT (along with the medium) was removed and DMSO (150μL) was added to each well of the culture plates, followed by vertexing and subsequent measurement of absorbance (at 540 nm) using microplate reader. The data are shown as percentage inhibition of proliferation in comparison with controls containing 0.1% DMSO.

The target of a further data set is T1, EGFR (Homo sapiens, UniProt P00533).
T1 construct: amino acids 645–1186; His6 (N); made in house; host or cells: Sf-9 insect cells (baculovirus; pBlueBacHis2B / pFASTBacHTc)
T1 sequence (P00533 669-1210): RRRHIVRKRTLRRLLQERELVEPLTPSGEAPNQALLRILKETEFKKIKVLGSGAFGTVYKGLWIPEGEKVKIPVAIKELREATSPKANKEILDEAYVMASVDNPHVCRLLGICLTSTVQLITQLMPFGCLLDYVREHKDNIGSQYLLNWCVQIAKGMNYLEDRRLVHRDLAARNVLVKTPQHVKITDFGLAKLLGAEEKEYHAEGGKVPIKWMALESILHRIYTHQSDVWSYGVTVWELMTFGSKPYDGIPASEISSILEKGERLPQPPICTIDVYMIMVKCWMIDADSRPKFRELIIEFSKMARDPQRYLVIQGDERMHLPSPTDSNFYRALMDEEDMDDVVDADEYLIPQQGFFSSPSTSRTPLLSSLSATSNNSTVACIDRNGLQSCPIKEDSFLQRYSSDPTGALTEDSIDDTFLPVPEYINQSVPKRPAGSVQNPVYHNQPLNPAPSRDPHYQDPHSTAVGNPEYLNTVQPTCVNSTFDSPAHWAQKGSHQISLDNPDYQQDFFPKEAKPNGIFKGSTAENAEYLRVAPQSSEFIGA
The experiment in a line: EGFR-TK inhibitory assay. The class given is biochemical. The settings on record: read-out: EGFR inhibition IC50 ± SEM. The protocol:
4.2.1.3. EGFR inhibitory assay
Sf-9 cells were infected for 72h for protein expression. […]
centrifugation for 20 min.
Histidine-linked proteins were first eluted with 250 and then […]
using wash buffer. Europium-tagged antiphosphotyrosine antibody (75 µL, 400 ng) was added to each well followed by incubation of 1h and then washing of the plates using buffer. The enhancement solution was added to each well and the signal was recorded at excitation and […]
The autophosphorylation percentage inhibition by compounds was calculated using the following equation: […]
(1 picture or pasted object on this page, not shown here)

For data set [2], the system named is pancreatic cancer (Panc-1) cell line. Description: Antiproliferative MTT assay, Panc-1. The class given is cell-based. The note with it: Homo sapiens, Panc-1 pancreatic cancer cells, read-out: Antiproliferative activity IC50 ± SEM Panc-1. The protocol: 4.2.1.2. Assay for antiproliferative effect
To explore the antiproliferative potential of compounds MTT assay was performed according to previously reported procedure using different cell lines to explore the antiproliferative potential of […]
calculate the total nuclear DNA, a fluorescent dye (propidium iodide, PI) is used which can attach to the DNA, thus offering a quick and precise technique. PI cannot pass through the cell membrane and its signal intensity can be considered as directly proportional to quantity of cellular DNA.
Cells whose cell membranes are damaged or have changed permeability are counted as dead ones.
The assay was performed by seeding the cells of different cell lines at a density of 3000-7500 cells/well (in 200µl medium) in culture plates followed by incubation for 24h at 37 °C in humidified 5% CO2/95% air atmospheric conditions. The medium was removed; the compounds were added to the plates at 10 µM concentrations (in 0.1% DMSO) in triplicates, followed by incubation for 48 h. DMSO (0.1%) was used as control. After incubation, medium was removed […]
80 °C, the plates were allowed to freeze for 24 h, followed by thawing at 25 °C. […]
(Polar-Star BMG Tech) was used to record the readings at excitation and emission wavelengths of 530 and 620 nm for each well. The percentage cytotoxicity of compounds was calculated using […]
Where ATC= Absorbance of treated cells and AC= Absorbance of control. Erlotinib was used as positive control in the assay.
(Formazan colour is commonly taken as a measure of viable cells.)

`O=c1c2ccccc2nc(SCc2nc(-c3ccc(Cl)cc3)no2)n1-c1ccccc1` [Compound 9b, 2-((3-(4-Chlorophenyl)-1,2,4-oxadiazol-5-yl)methylthio)-3 phenylquinazolin-4(3H)-one]: the viability at 96 h, 50 µM in data set [1] worked out at 89%. In addition, the figures for the IC50 (on EGFR; in data set [2]) were 57 ± 4 nM and 24 ± 2 nM, respectively.
